Laboratory results published in article PMC10762035, “Molecular basis of human trace amine-associated receptor 1 activation” (Nature Communications, 2024).
Where a chain is given by its changes, count along the chain named. Several values for one entry are separate records, joined by “and”; a condition that tells them apart may be missing. Identical values can stand only once. Like-named read-outs stand apart in the source and are kept apart here.

Tests used:
Format in all cases: cell-based
[1] = target: T1, hTA1 C88S (Homo sapiens, UniProt Q96RJ0, C88S); experiment: GloSensor cAMP accumulation assay, C88S mutant
T1 construct: expressed in transfected cells; host or cells: HEK293T
T1 sequence (Q96RJ0 1-339 C88S): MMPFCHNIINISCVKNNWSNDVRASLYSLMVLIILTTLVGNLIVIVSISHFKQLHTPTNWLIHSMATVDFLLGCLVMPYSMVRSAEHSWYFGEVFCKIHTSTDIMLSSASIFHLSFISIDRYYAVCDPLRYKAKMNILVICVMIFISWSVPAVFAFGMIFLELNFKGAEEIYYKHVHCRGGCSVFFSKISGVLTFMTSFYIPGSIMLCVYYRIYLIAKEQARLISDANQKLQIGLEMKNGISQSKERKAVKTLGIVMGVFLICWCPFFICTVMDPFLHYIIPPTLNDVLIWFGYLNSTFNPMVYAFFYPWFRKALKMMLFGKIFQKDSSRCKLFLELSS

[2] = target: T2, hTA1 I290Y (Homo sapiens, UniProt Q96RJ0, I290Y); experiment: GloSensor cAMP accumulation assay, I290Y mutant; details: for cAMP accumulation response, normalized (concentration-response source data, single replicate values): hTA1 I290Y (N=3), log[Compound];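 for cAMP accumulation response, normalized (concentration-response source data, single replicate values): normalized to the maximum response of β-PEA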
T2 construct: expressed in transfected cells; host or cells: HEK293T
T2 sequence (Q96RJ0 1-339 I290Y): T1 sequence (Q96RJ0 1-339 C88S) with S88C, I290Y

[3] = target: T3, hTA1 T271A (Homo sapiens, UniProt Q96RJ0, T271A); experiment: GloSensor cAMP accumulation assay, T271A mutant
T3 construct: expressed in transfected cells; host or cells: HEK293T
T3 sequence (Q96RJ0 1-339 T271A): T1 sequence (Q96RJ0 1-339 C88S) with S88C, T271A

With `CCC(CC1COC(N)=N1)c1ccccc1` (stereo not drawn) [Ro5256390] the Emax values ([1]; C88S, Mean of fit per experiment) was 141.143 and 102.28, the Emax ([1]; C88S, relative to β-PEA) was 122% and the EC50 ([1]; pEC50 values, C88S, Mean of fit per experiment) was 3.91 nM and 2.46 nM. For the same compound, the EC50 ([1]; pEC50 ± SEM, C88S, n=2) was 3.09 nM, the Emax ([1]; read-out: Span ± SEM (Emax normalized to β-PEA), C88S, n=2) was 122% and the EC50 ([2]; EC50, I290Y) was 3.79 nM. For the same compound, the “Emax values, Mean” value ([2]; I290Y, single experiments (3 replicates each), β-PEA = 100) was 89.4977 and 95.7835 and 67.042, the “cAMP accumulation response, normalized (concentration-response source data, single replicate values)” value (“cAMP accumulation response, normalized” below) ([2]; M = -5) was 116.004 and 90.4575 and 99.9991 and 95.6306 and 94.8977 and 106.257 and 79.386 and 92.9217 and 71.4902 and the “cAMP accumulation response, normalized” value ([2]; M = -5.522) was 112.926 and 87.6874 and 89.8419 and 104.792 and 95.2641 and 96.3635 and 62.4664 and 47.8027 and 61.3384. For the same compound, the “cAMP accumulation response, normalized” value ([2]; M = -6) was 83.3783 and 72.6056 and 91.3809 and 91.5998 and 83.1717 and 95.997 and 59.0825 and 62.4664 and 68.1063, the “cAMP accumulation response, normalized” value ([2]; M = -6.522) was 92.9198 and 66.4498 and 97.2289 and 82.4388 and 92.3327 and 95.997 and 63.5944 and 55.6986 and 61.3384 and the “cAMP accumulation response, normalized” value ([2]; M = -7) was 110.156 and 60.6017 and 92.3043 and 89.4012 and 82.4388 and 95.997 and 47.8027 and 61.3384 and 55.6986. For the same compound, the “cAMP accumulation response, normalized” value ([2]; M = -7.522) was 92.6121 and 50.1368 and 96.6133 and 79.5073 and 85.3703 and 95.2641 and 50.0587 and 56.8265 and 52.3146, the “cAMP accumulation response, normalized” value ([2]; M = -8) was 93.8432 (2×) and 82.1471 and 71.4457 and 85.3703 and 69.6135 and 30.8831 (2×) and 25.2433 and the “cAMP accumulation response, normalized” value ([2]; M = -8.522) was 58.1394 and 51.6758 and 54.7537 and 45.0622 and 47.6273 and 45.4287 and 15.0915 and 9.4516 and 13.9635. For the same compound, the “cAMP accumulation response, normalized” value ([2]; M = -9) was 42.442 and 23.359 and 39.3641 and 21.9767 and 28.939 and 28.2061 and 3.812 and 2.684 and 9.4516, the “cAMP accumulation response, normalized” value ([2]; M = -9.522) was 12.5863 and 7.046 and 12.2785 and 10.9836 and 8.785 and 11.7164 and -2.956 and -1.828 and 0.4278 and the “cAMP accumulation response, normalized” value ([2]; M = -10) was 11.6629 and 9.816 and 11.9707 and -2.575 and -0.376 and 1.456 and 0.4278 and -0.7002 and -1.828. The “cAMP accumulation response, normalized” value ([2]; M = -10.522) was 3.045, the EC50 ([2]; pEC50 values, Mean, I290Y, single experiments (3 replicates each)) was 1.77 nM and 2.74 nM and 11.3 nM and the EC50 ([2]; pEC50 ± SEM, I290Y) was 3.8 nM. The Emax ([2]; read-out: Span ± SEM (Emax normalized to β-PEA)) was 84.1 ± 8.72%, the EC50 ([3]; EC50, T271A, n=2) was 14.7 nM and the “Emax values, Mean” value ([3]; T271A mutant, Figure 5B, β-PEA = 100, each row one independent experiment (3 replicates)) was 98.9093. The EC50 ([3]; pEC50 values, Mean, T271A mutant, Figure 5B, each row one independent experiment (3 replicates)) was 8.67 nM and 24.8 nM, the Emax ([3]; read-out: Emax values, Mean, T271A mutant, Figure 5B, β-PEA = 100, each row one independent experiment (3 replicates)) was 92.1% and the Emax ([3]; read-out: Span ± SEM (Emax normalized to β-PEA), T271A, n=2) was 95.5 ± 3.42%.
